Measurements taken from ChEMBL document CHEMBL5338791, “Discovery of Novel 1,3-Diphenylpyrazine Derivatives as Potent S-Phase Kinase-Associated Protein 2 (Skp2) Inhibitors for the Treatment of Cancer” (J Med Chem, 2023).
Activity calls are given as the source filed them. The calls are words filed in the database; no cut-off is given here.

Tests used:
[1] = AUClast in tumor of NOD-SCID mouse model xenografted with human PC-3 cells at 25 mg/kg, IG measured upto 48 hrs by LC-MS/MS analysis; format: ADME, organism-based, Neoplasm; conditions: in vivo, po
[2] = AUClast in plasma of NOD-SCID mouse model xenografted with human PC-3 cells at 25 mg/kg, IG measured upto 48 hrs by LC-MS/MS analysis; format: ADME, organism-based; set-up: dose 25 mg/kg, time < 48 hrs, route ig; conditions: po
[3] = system: PC-3; experiment: Induction of cell cycle arrest in human PC-3 cells assessed as accumulation of cells at S phase at 5 uM incubated for 48 hrs by flow cytometry (reference value: 22.44 %); format: functional
[4] = system: MGC-803; experiment: Induction of cell cycle arrest in human MGC-803 cells assessed as accumulation of cells at S phase at 2.5 uM incubated for 48 hrs by flow cytometry (reference value: 22.72 %); format: functional
[5] = system: MGC-803; experiment: Antitumor activity against human MGC-803 cells xenografted in NOD-SCID mouse model assessed as tumor growth inhibition at 10 to 50 mg/kg, IG administered once every 2 days for 21 days; format: functional, organism-based; conditions: dose 10-50 mg/kg, time 21.0 day
[6] = MRTlast in plasma of NOD-SCID mouse model xenografted with human PC-3 cells at 25 mg/kg, IG measured upto 48 hrs by LC-MS/MS analysis; format: ADME, organism-based; conditions: po
[7] = system: NCI-H1299; experiment: Antitumor activity against human NCI-H1299 cells overexpressing Skp2 assessed as cell growth inhibition incubated for 72 hrs by MTT assay; format: functional, cell-based; conditions: NCI-H1299, 72 h
[8] = system: PC-3; experiment: Induction of cell cycle arrest in human PC-3 cells assessed as accumulation of cells at G2 phase at 10 uM incubated for 48 hrs by flow cytometry (reference value: 19.34 %); format: functional
[9] = system: MGC-803; experiment: Antitumor activity against human MGC-803 cells overexpressing Skp2 assessed as cell growth inhibition incubated for 72 hrs by MTT assay; format: functional, cell-based; conditions: MGC-803, 72 h
[10] = system: MGC-803; experiment: Induction of cell cycle arrest in human MGC-803 cells assessed as accumulation of cells at G2 phase at 10 uM incubated for 36 hrs by flow cytometry (reference value: 20.64 %); format: functional
[11] = system: PC-3; experiment: Induction of cell cycle arrest in human PC-3 cells assessed as accumulation of cells at S phase at 10 uM incubated for 24 hrs by flow cytometry (reference value: 19.7 %); format: functional
[12] = system: PC-3; experiment: Induction of apoptosis in human PC-3 cells assessed as viable cells at 10 uM incubated for 48 hrs by annexin V-FITC/PI staining based flow cytometry (reference value: 98.6 %); format: functional; conditions: read-out: Activity
[13] = system: MGC-803; experiment: Induction of cell cycle arrest in human MGC-803 cells assessed as accumulation of cells at G2 phase at 10 uM incubated for 24 hrs by flow cytometry (reference value: 20.64 %); format: functional
[14] = system: PC-3; experiment: Antitumor activity against human PC-3 cells xenografted in NOD-SCID mouse model assessed as tumor growth inhibition at 10 mg/kg, IG administered once every 2 days for 21 days relative to control; format: functional; conditions: PC-3, po, 504 h, time 21 day, read-out: TGI
[15] = system: PC-3; experiment: Antitumor activity against human PC-3 cells xenografted in NOD-SCID mouse model assessed as tumor growth inhibition at 50 mg/kg, IG administered once every 2 days for 21 days relative to control; format: functional; conditions: PC-3, po, 504 h, time 21 day, read-out: TGI
[16] = system: PC-3; experiment: Upregulation of p21 level in human PC-3 cells upto 10 uM by Western blot analysis; format: functional, cell-based; conditions: time 48.0 hrs, TDE = time-dependent effect
[17] = Toxicity in NOD-SCID mouse model xenografted with human MGC-803 cells assessed as change in liver histology at 10 to 50 mg/kg, IG administered once every 2 days for 21 days by H and E staining based analysis; format: organism-based; conditions: in vivo, po, 504 h, dose 10-50 mg/kg, time 21 day
[18] = system: MGC-803; experiment: Induction of apoptosis in human MGC-803 cells assessed as necrotic cells at 10 uM incubated for 48 hrs by annexin V-FITC/PI staining based flow cytometry (reference value: 0.89 %); format: functional
[19] = system: MGC-803; experiment: Upregulation of p27 level in human MGC-803 cells upto 10 uM by Western blot analysis; format: functional, cell-based; conditions: time 48.0 hrs, TDE = time-dependent effect
[20] = system: MGC-803; experiment: Induction of apoptosis in human MGC-803 cells assessed as early apoptotic cells at 10 uM incubated for 48 hrs by annexin V-FITC/PI staining based flow cytometry (reference value: 0.21 %); format: functional
[21] = system: MGC-803; experiment: Inhibition of cell migration in human MGC-803 cells incubated for 48 hrs by wound healing assay; format: functional, cell-based; conditions: dose <= 2.0 µM
[22] = system: PC-3; experiment: Antitumor activity against human PC-3 cells xenografted in NOD-SCID mouse model assessed as downregulation of Skp2 expression at 10 to 50 mg/kg, IG administered once every 2 days for 21 days by Western blot analysis; format: functional, organism-based; conditions: dose 10-50 mg/kg, time 21.0 day
[23] = Metabolic stability in mouse liver microsome assessed as half life at 20 umol/L preincubated for 5 mins followed by NADPH addition measured upto 60 mins by LC-MS/MS analysis; format: ADME; conditions: liver microsomes, dose 20 µmol/L, time < 65 min

- AUClast [1]: 2443.9 ng·h/g
- AUC(0-t) at 48 h [2]: 3230 ng·h/mL
- MRT last at 48 h [6]: 13.4 h
- IC50 [7]: 3.6 µM
- IC50 [9]: 7 µM
- half-life at 20 µM [23]: 0.255 h
Compound: O=C(CCl)NC1CCN(c2cnc(-c3ccccc3)c(-c3ccccc3)n2)CC1
- Activity [3]: 38.7%
- Activity [4]: 26.89%
- TGI [5]: Active
- Activity [8]: 16.14%
- Activity [10]: 19.76%
- Activity [11]: 38.52%
- viability at 10 µM [12]: 58.6%
- Activity [13]: 17.72%
- inhibition in vivo at 10 mg/kg [14]: 55.7%
- inhibition in vivo at 50 mg/kg [15]: 90.4%
- Activity [16]: Tde
- Activity [17]: Non-Toxic
- Activity [18]: 4.73%
- Activity [19]: Tde
- Activity [20]: 3.41%
- inhibition [21]: Dose-Dependent Effect
- Activity [22]: Active
